Values quoted from earlier work as cited in patent US20130133101A1, “PLANTS RESISTANT TO PATHOGENS AND METHODS FOR PRODUCTION THEREOF” (GENOPLANTE-VALOR, priority 2010, published 2013).
Non-standard residues stand in square brackets, D forms with d. sY = N[C@@H](Cc1ccc(OS(=O)(=O)O)cc1)C(=O)O

Key:
[1] = tested on: Phoma nareissi; settings: in vitro, dose-dependent manner
[2] = tested on: Botrytis tulipae; settings: in vitro, dose-dependent manner

Substance | mycelium growth inhibition [1] | mycelium growth inhibition [2]
H-[sY]I[sY]T-OH [PSKβ] | inhibit in vitro the mycelium growth | inhibit in vitro the mycelium growth
H-[sY]I[sY]TQ-OH [PSKα] | inhibit in vitro the mycelium growth | inhibit in vitro the mycelium growth
